Source: article PMC3678964 (Journal of medicinal chemistry, 2012)

What follows are molecules tested against T1, transmembrane domain-deleted rat FAAH (ΔTM rFAAH) (Rattus norvegicus, UniProt P97612). Conditions: phenyl ring substitution of phenylheptyl template 11e.
T1 sequence (P97612 30-579 limits assumed): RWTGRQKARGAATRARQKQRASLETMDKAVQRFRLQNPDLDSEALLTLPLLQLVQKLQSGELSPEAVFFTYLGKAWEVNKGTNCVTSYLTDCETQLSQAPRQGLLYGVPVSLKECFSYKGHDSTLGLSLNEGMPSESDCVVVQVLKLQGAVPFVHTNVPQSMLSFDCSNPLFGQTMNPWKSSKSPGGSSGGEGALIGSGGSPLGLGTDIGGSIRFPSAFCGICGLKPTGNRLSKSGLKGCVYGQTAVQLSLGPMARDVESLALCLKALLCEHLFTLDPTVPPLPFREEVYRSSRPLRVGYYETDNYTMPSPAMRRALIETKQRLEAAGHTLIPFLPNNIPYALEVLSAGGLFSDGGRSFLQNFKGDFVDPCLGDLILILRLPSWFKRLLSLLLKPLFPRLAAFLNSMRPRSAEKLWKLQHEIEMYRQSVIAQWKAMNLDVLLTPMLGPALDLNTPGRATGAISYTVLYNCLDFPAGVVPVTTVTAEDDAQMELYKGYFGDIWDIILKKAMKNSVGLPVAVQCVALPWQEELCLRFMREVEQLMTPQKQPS
For `O=S(=O)(F)CCCCCCCc1ccccc1OCc1ccccc1` [20c, 7-(2-Benzyloxyphenyl)heptanesulfonyl fluoride], the “increase in FAAH inhibitory potency relative to 11e” value was 9-10 fold. With `O=S(=O)(F)CCCCCCCc1cccc(O)c1` [21b, 7-(3-Hydroxyphenyl)heptanesulfonyl fluoride] the “increase in FAAH inhibitory potency relative to 11e” value was 15- to 31 fold. For `O=S(=O)(F)CCCCCCCc1ccccc1O` [21c, 7-(2-Hydroxyphenyl)heptanesulfonyl fluoride], the “increase in FAAH inhibitory potency relative to 11e” value was 15- to 31 fold.
